According to patent US20150296790A1, “SILICON-CONTAINING COMPOUND AQUEOUS SOLUTION AND ANTIBACTERIAL/ANTIVIRAL AGENT INCLUDING SAID SOLUTION” (JEX CO., LTD., priority 2012, published 2015):

Test: Solubility of Silicon-Containing Compound E in aqueous CD solutions (clarity and stability, visual)
Assay type: physicochemical
Set-up: key to Solubility of Compound E: Stability: OK: When the aqueous solutions of the CD and the Silicon-Containing Compound E did not exhibit the conditions such as presence of precipitates and deposits, the solutions were considered as stable; NG: When the aqueous solutions of the CD and the Silicon-Containing Compound E exhibited the conditions such as presence of precipitates and deposits, the solutions were not considered as stable; key to Solubility of Compound E: Clarity: When the aqueous solutions of the CD and the Silicon-Containing Compound E were clear, the solutions were rated as “OK”; When the aqueous solutions of the CD and the Silicon-Containing Compound E were not clear, the solutions were rated as “NG”
Settings: purified water
Procedure: To determine “Solubility of Compound E” in the tables, the Silicon-Containing Compound E as another solute was added at respective ratios shown in the respective tables (see “Ratio of Compound E” in the tables) to the respective aqueous CD solutions after evaluation of the solubility of CD, and then the mixture was stirred on a shaker to prepare the respective aqueous solutions of the CD and the Silicon-Containing Compound E. Immediately after preparation of the aqueous solutions of the CD and the Silicon-Containing Compound E, the clarity of the aqueous solutions was visually evaluated. When the aqueous solutions of the CD and the Silicon-Containing Compound E were clear, the solutions were rated as “OK”. When the aqueous solutions of the CD and the Silicon-Containing Compound E were not clear, the solutions were rated as “NG”. “Stability” in “Solubility of Compound E” in the tables was determined by allowing the respective aqueous solutions of the CD and the Silicon-Containing Compound E after preparation to stand at ambient temperature for a predetermined period and then visually evaluating the conditions (such as presence of precipitates and deposits) of the solutions.

[1] = β-CD 1 w/w %, Compound E 0.3 w/w %
[2] = β-CD 1 w/w %, Compound E 0.4 w/w %
[3] = β-CD 1 w/w %, Compound E 0.5 w/w %
[4] = β-CD 1 w/w %, Compound E 0.6 w/w %
[5] = β-CD 1 w/w %, Compound E 0.7 w/w %
[6] = β-CD 1 w/w %, Compound E 0.8 w/w %
[7] = β-CD 1 w/w %, Compound E 0.9 w/w %
[8] = β-CD 1 w/w %, Compound E 1 w/w %
[9] = γ-CD 1 w/w %, Compound E 0.1 w/w %
[10] = γ-CD 1 w/w %, Compound E 0.2 w/w %
[11] = γ-CD 1 w/w %, Compound E 0.3 w/w %
[12] = γ-CD 1 w/w %, Compound E 0.4 w/w %
[13] = γ-CD 1 w/w %, Compound E 0.5 w/w %
[14] = γ-CD 1 w/w %, Compound E 0.6 w/w %
[15] = γ-CD 1 w/w %, Compound E 0.7 w/w %
[16] = γ-CD 1 w/w %, Compound E 0.8 w/w %
[17] = γ-CD 1 w/w %, Compound E 0.9 w/w %
[18] = γ-CD 1 w/w %, Compound E 1 w/w %
[19] = γ-CD 3 w/w %, Compound E 0.1 w/w %
[20] = γ-CD 3 w/w %, Compound E 0.2 w/w %
[21] = γ-CD 3 w/w %, Compound E 0.3 w/w %
[22] = γ-CD 3 w/w %, Compound E 0.4 w/w %
[23] = γ-CD 3 w/w %, Compound E 0.5 w/w %
[24] = γ-CD 3 w/w %, Compound E 0.6 w/w %
[25] = γ-CD 3 w/w %, Compound E 0.7 w/w %
[26] = γ-CD 3 w/w %, Compound E 0.8 w/w %
[27] = γ-CD 3 w/w %, Compound E 0.9 w/w %
[28] = γ-CD 3 w/w %, Compound E 1 w/w %
[29] = γ-CD 6 w/w %, Compound E 0.1 w/w %
[30] = γ-CD 6 w/w %, Compound E 0.2 w/w %
[31] = γ-CD 6 w/w %, Compound E 0.3 w/w %
[32] = γ-CD 6 w/w %, Compound E 0.4 w/w %
[33] = γ-CD 6 w/w %, Compound E 0.5 w/w %
[34] = γ-CD 6 w/w %, Compound E 0.6 w/w %
[35] = γ-CD 6 w/w %, Compound E 0.7 w/w %
[36] = γ-CD 6 w/w %, Compound E 0.8 w/w %
[37] = γ-CD 6 w/w %, Compound E 0.9 w/w %
[38] = γ-CD 6 w/w %, Compound E 1 w/w %
[39] = γ-CD 10 w/w %, Compound E 0.1 w/w %
[40] = γ-CD 10 w/w %, Compound E 0.2 w/w %
[41] = γ-CD 10 w/w %, Compound E 0.3 w/w %
[42] = γ-CD 10 w/w %, Compound E 0.4 w/w %
[43] = γ-CD 10 w/w %, Compound E 0.5 w/w %
[44] = γ-CD 10 w/w %, Compound E 0.6 w/w %
[45] = γ-CD 10 w/w %, Compound E 0.7 w/w %
[46] = γ-CD 10 w/w %, Compound E 0.8 w/w %
[47] = γ-CD 10 w/w %, Compound E 0.9 w/w %
[48] = γ-CD 10 w/w %, Compound E 1 w/w %

SMILES: CCCCCCCCCCCCCCCCCC[N+](C)(C)CCC[Si](OCC)(OCC)OCC.[Cl-] [Compound E, Octadecyl dimethyl(3-triethoxysilylpropyl)ammonium chloride]
- Solubility of Compound E: Stability (β-CD 1 w/w %, Compound E 0.2 w/w %): OK
- Solubility of Compound E: Clarity [1]: NG
- Solubility of Compound E: Stability [1]: OK
- Solubility of Compound E: Clarity [2]: NG
- Solubility of Compound E: Stability [2]: OK
- Solubility of Compound E: Clarity [3]: NG
- Solubility of Compound E: Stability [3]: OK
- Solubility of Compound E: Clarity [4]: NG
- Solubility of Compound E: Stability [4]: OK
- Solubility of Compound E: Clarity [5]: NG
- Solubility of Compound E: Stability [5]: OK
- Solubility of Compound E: Clarity [6]: NG
- Solubility of Compound E: Stability [6]: OK
- Solubility of Compound E: Clarity [7]: NG
- Solubility of Compound E: Stability [7]: OK
- Solubility of Compound E: Clarity [8]: NG
- Solubility of Compound E: Stability [8]: OK
- Solubility of Compound E: Clarity [9]: OK
- Solubility of Compound E: Stability [9]: OK
- Solubility of Compound E: Clarity [10]: OK
- Solubility of Compound E: Stability [10]: OK
- Solubility of Compound E: Clarity [11]: OK
- Solubility of Compound E: Stability [11]: OK
- Solubility of Compound E: Clarity [12]: OK
- Solubility of Compound E: Stability [12]: OK
- Solubility of Compound E: Clarity [13]: NG
- Solubility of Compound E: Stability [13]: OK
- Solubility of Compound E: Clarity [14]: NG
- Solubility of Compound E: Stability [14]: OK
- Solubility of Compound E: Clarity [15]: NG
- Solubility of Compound E: Stability [15]: OK
- Solubility of Compound E: Clarity [16]: NG
- Solubility of Compound E: Stability [16]: OK
- Solubility of Compound E: Clarity [17]: NG
- Solubility of Compound E: Stability [17]: OK
- Solubility of Compound E: Clarity [18]: NG
- Solubility of Compound E: Stability [18]: OK
- Solubility of Compound E: Clarity [19]: NG
- Solubility of Compound E: Stability [19]: OK
- Solubility of Compound E: Clarity [20]: NG
- Solubility of Compound E: Stability [20]: OK
- Solubility of Compound E: Clarity [21]: NG
- Solubility of Compound E: Stability [21]: OK
- Solubility of Compound E: Clarity [22]: NG
- Solubility of Compound E: Stability [22]: OK
- Solubility of Compound E: Clarity [23]: NG
- Solubility of Compound E: Stability [23]: OK
- Solubility of Compound E: Clarity [24]: NG
- Solubility of Compound E: Stability [24]: OK
- Solubility of Compound E: Clarity [25]: NG
- Solubility of Compound E: Stability [25]: OK
- Solubility of Compound E: Clarity [26]: NG
- Solubility of Compound E: Stability [26]: OK
- Solubility of Compound E: Clarity [27]: NG
- Solubility of Compound E: Stability [27]: OK
- Solubility of Compound E: Clarity [28]: NG
- Solubility of Compound E: Stability [28]: OK
- Solubility of Compound E: Clarity [29]: NG
- Solubility of Compound E: Stability [29]: OK
- Solubility of Compound E: Clarity [30]: NG
- Solubility of Compound E: Stability [30]: OK
- Solubility of Compound E: Clarity [31]: NG
- Solubility of Compound E: Stability [31]: OK
- Solubility of Compound E: Clarity [32]: NG
- Solubility of Compound E: Stability [32]: OK
- Solubility of Compound E: Clarity [33]: NG
- Solubility of Compound E: Stability [33]: OK
- Solubility of Compound E: Clarity [34]: NG
- Solubility of Compound E: Stability [34]: OK
- Solubility of Compound E: Clarity [35]: NG
- Solubility of Compound E: Stability [35]: OK
- Solubility of Compound E: Clarity [36]: NG
- Solubility of Compound E: Stability [36]: OK
- Solubility of Compound E: Clarity [37]: NG
- Solubility of Compound E: Stability [37]: OK
- Solubility of Compound E: Clarity [38]: NG
- Solubility of Compound E: Stability [38]: OK
- Solubility of Compound E: Clarity [39]: NG
- Solubility of Compound E: Stability [39]: NG
- Solubility of Compound E: Clarity [40]: NG
- Solubility of Compound E: Stability [40]: NG
- Solubility of Compound E: Clarity [41]: NG
- Solubility of Compound E: Stability [41]: NG
- Solubility of Compound E: Clarity [42]: NG
- Solubility of Compound E: Stability [42]: NG
- Solubility of Compound E: Clarity [43]: NG
- Solubility of Compound E: Stability [43]: NG
- Solubility of Compound E: Clarity [44]: NG
- Solubility of Compound E: Stability [44]: NG
- Solubility of Compound E: Clarity [45]: NG
- Solubility of Compound E: Stability [45]: NG
- Solubility of Compound E: Clarity [46]: NG
- Solubility of Compound E: Stability [46]: NG
- Solubility of Compound E: Clarity [47]: NG
- Solubility of Compound E: Stability [47]: NG
- Solubility of Compound E: Clarity [48]: NG
- Solubility of Compound E: Stability [48]: NG
